Source: patent US9656978B2, “Acylpiperazines as inhibitors of transglutaminase and their use in medicine” (ASTON UNIVERSITY, priority 2012, dated 2017)

What was measured:
Format in all cases: biochemical
[1] = target: T1, purified recombinant human TG2 (tissue transglutaminase) (Homo sapiens, UniProt P21980); test: TG2 transamidation activity, biotin X-cadaverine incorporation into N,N′-dimethylcasein (Example 2); settings: recombinant human TG2 400 ng/ml, 2 h at 37° C.
T1 construct: purchased Zedira, Germany
T1 sequence (P21980 1-687): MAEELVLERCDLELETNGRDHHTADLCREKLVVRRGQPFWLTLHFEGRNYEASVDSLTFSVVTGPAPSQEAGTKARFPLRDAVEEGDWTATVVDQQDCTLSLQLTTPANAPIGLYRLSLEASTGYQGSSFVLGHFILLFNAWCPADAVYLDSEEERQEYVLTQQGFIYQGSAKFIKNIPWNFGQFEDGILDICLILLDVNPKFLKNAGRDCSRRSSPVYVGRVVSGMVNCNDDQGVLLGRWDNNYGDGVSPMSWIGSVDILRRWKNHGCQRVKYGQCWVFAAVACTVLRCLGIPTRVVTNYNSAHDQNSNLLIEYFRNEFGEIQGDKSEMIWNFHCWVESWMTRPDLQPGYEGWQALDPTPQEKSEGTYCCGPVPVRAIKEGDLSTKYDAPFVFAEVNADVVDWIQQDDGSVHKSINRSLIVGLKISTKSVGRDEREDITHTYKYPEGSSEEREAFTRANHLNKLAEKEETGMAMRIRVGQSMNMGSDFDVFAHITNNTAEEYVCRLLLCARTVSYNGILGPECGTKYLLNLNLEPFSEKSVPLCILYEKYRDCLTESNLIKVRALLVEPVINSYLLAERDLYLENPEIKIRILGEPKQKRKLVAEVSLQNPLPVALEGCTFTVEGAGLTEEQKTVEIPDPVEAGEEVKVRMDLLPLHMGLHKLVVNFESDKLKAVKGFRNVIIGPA
Procedure: TG transamidation activity and the affect of inhibitors on activity was measured by biotin X-cadaverine incorporation into N,N′-dimethylcasein. After coating 96 well plates with 100 μl of 10 mg/ml N,N′-dimethylcasein in 50 mM Tris-Cl, pH8 at 4° C. over night, plates were washed with TBS-0.05% Tween-20(v/v), pH 7.6 and TBS, pH 7.6, and 100 μl purified recombinant human TG2 (400 ng/ml Zedira, Germany) (tissue transglutaminase) in 50 mM Tris-HCl, pH7.4, containing 1 mM DTT, 10 mM CaCl2 and 0.1 μM biotin-cadaverine added into the coated wells containing the appropriate concentration of inhibitor. The reaction was allowed to proceed for 2 h at 37° C. The plate was then washed twice with TBS-Tween-20 (v/v), pH 7.6 and once with TBS, pH 7.6 before being blocked with 100 μl of blocking buffer (3% (w/v) BSA in TBS-Tween, pH 7.6) for 30 min at 37° C. After blocking, the wells were incubated with 100 μl HRP-conjugated Extr-Avidin peroxidase (Sigma-Aldrich, UK) in blocking buffer (1:1,000 dilution) for 1 h at 37° C. After another set of washes, TG2 activity was measured using Sigma Fast OPD, tablets dissolved in 20 ml of distilled H2O. The colour was developed by adding 2.5 M H2SO4 and the absorbance at 490 nm measured using a microplate reader ELx808™. All inhibitors were dissolved in DMSO as a 100 mM solution prior to addition to the assay.

[2] = target: T2, purified recombinant human TG2 (Homo sapiens, UniProt P21980); test: Selectivity assay, TG2, biotin X-cadaverine incorporation into N,N′-dimethylcasein (Example 4); settings: recombinant human TG2 2 μg/ml, 1 h at 37° C.; errors are SD
T2 construct: purchased Zedira, Germany
T2 sequence (P21980 1-687): T1 sequence (P21980 1-687)
Procedure: (§1) TG transamidation activity and the effect of inhibitors on activity was measured by biotin X-cadaverine incorporation into N,N′-dimethylcasein. After coating 96 well plates with 100 μl of 10 mg/ml N,N′-dimethylcasein in 50 mM Tris-Cl, pH8 at 4° C. over night, plates were washed with TBS-0.05% Tween-20(v/v), pH 7.6 and TBS, pH 7.6, and either 100 μl purified recombinant human TG2 (2 μg/ml Zedira, Germany) or 100 μl purified recombinant human FXIIIa (2 μg/ml Zedira, Germany, preactivated by incubation with 0.01 U bovine thrombin/μg FXIII at room temperature for 30 minutes) in 50 mM Tris-HCl, pH7.4, containing 1 mM DTT, 10 mM CaCl2 and 0.1 μM biotin-cadaverine added into the coated wells containing the appropriate concentration of inhibitor. The reaction was allowed to proceed for 1 h at 37° C. The plate was then washed twice with TBS-Tween-20 (v/v), pH 7.6 and once with TBS, pH 7.6 before being blocked with 100 μl of blocking buffer (3% (w/v) BSA in TBS-Tween, pH 7.6) for 30 min at 37° C. After blocking, the wells were incubated with 100 μl HRP-conjugated ExtrAvidin peroxidase (Sigma-Aldrich, UK) in blocking buffer (1:1,000 dilution) for 1 h at 37° C. After another set of washes, TG2 activity was measured using Sigma Fast OPD, tablets dissolved in 20 ml of distilled H2O. The colour was developed by adding 2.5M H2SO4 and the absorbance at 490 nm measured using a microplate reader ELx808™. All inhibitors were dissolved in DMSO as a 100 mM solution prior to addition to the assay.

[3] = target: T3, purified recombinant human FXIIIa (Homo sapiens, UniProt P00488); test: Selectivity assay, FXIIIa, biotin X-cadaverine incorporation into N,N′-dimethylcasein (Example 4); settings: recombinant human FXIIIa 2 μg/ml, thrombin preactivated, 1 h at 37° C.; errors are SD; read-out: FACTOR XIII IC50
T3 construct: purchased Zedira, Germany
T3 sequence (P00488 39-732 limits assumed): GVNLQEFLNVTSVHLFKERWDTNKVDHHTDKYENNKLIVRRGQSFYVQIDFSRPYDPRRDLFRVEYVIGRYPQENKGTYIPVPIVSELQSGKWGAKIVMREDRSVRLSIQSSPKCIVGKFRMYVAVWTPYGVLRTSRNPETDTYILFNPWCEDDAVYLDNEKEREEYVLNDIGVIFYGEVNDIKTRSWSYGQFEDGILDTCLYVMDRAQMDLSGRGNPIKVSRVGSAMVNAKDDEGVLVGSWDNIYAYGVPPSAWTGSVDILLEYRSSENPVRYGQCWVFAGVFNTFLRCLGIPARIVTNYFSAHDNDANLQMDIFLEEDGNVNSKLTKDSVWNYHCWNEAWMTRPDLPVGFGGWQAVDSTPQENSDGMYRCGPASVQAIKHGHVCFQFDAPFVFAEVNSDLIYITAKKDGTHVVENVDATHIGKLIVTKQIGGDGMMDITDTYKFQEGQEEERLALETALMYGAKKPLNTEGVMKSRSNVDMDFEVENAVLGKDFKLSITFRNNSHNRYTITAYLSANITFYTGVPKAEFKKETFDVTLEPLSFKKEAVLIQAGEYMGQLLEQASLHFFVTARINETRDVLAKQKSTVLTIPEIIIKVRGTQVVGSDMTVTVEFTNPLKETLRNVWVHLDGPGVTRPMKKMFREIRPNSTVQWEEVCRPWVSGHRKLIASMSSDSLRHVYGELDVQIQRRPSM
Procedure: as §1

Row | IC50 [1] [µM] | IC50 [2] [µM] | IC50 [3] [µM] | SMILES
1 | > 100 | > 500 | 15.5 ± 6.3 | C[S+](C)CC(=O)N[C@@H](Cc1ccccc1)C(=O)N1CCN(C(=O)OCc2ccccc2)CC1 [EB 1-126]
2 | > 100 | > 500 | 23.3 ± 5.5 | C[S+](C)CC(=O)N[C@H](Cc1ccccc1)C(=O)N1CCN(C(=O)OCc2ccccc2)CC1 [EB 1-127]
3 | > 100 | > 500 | 13.5 ± 4.9 | C=CC(=O)N[C@H](Cc1ccccc1)C(=O)N1CCN(C(=O)OCc2ccccc2)CC1 [EB 1-131]
